Results published in patent publication US20240358727A1, “MICROSCALE THERMOPHORESIS TO EVALUATE CHANNEL LIPID INTERACTIONS AND METHODS OF TREATING NAV CHANNELS RELATED DISEASES” (Northeastern University, priority 2023, published 2024).
“Also recorded” adds a separate entry of the source.

Experiments:
[1] = target: T1, Nav1.5 (Homo sapiens, UniProt Q14524); experiment: Whole-cell patch clamp of Nav1.5 stable cells with optogenetic PI-phosphatases and diC8PI(4,5)P2 in the pipette; format: cell-based; details: for left shift in the I-V relationship / shift in V½SSI / shift in V½act / V½SSI / V½act: 200 μM diC8PI(4,5)P2; for current density: 200 μM diC8PI(4,5)P2, −55 mV; for τinact / ILATE: diC8PI(4,5)P2; for ILATE: % of Ipeak
T1 construct: expressed in transfected cells
T1 sequence (Q14524 whole entry): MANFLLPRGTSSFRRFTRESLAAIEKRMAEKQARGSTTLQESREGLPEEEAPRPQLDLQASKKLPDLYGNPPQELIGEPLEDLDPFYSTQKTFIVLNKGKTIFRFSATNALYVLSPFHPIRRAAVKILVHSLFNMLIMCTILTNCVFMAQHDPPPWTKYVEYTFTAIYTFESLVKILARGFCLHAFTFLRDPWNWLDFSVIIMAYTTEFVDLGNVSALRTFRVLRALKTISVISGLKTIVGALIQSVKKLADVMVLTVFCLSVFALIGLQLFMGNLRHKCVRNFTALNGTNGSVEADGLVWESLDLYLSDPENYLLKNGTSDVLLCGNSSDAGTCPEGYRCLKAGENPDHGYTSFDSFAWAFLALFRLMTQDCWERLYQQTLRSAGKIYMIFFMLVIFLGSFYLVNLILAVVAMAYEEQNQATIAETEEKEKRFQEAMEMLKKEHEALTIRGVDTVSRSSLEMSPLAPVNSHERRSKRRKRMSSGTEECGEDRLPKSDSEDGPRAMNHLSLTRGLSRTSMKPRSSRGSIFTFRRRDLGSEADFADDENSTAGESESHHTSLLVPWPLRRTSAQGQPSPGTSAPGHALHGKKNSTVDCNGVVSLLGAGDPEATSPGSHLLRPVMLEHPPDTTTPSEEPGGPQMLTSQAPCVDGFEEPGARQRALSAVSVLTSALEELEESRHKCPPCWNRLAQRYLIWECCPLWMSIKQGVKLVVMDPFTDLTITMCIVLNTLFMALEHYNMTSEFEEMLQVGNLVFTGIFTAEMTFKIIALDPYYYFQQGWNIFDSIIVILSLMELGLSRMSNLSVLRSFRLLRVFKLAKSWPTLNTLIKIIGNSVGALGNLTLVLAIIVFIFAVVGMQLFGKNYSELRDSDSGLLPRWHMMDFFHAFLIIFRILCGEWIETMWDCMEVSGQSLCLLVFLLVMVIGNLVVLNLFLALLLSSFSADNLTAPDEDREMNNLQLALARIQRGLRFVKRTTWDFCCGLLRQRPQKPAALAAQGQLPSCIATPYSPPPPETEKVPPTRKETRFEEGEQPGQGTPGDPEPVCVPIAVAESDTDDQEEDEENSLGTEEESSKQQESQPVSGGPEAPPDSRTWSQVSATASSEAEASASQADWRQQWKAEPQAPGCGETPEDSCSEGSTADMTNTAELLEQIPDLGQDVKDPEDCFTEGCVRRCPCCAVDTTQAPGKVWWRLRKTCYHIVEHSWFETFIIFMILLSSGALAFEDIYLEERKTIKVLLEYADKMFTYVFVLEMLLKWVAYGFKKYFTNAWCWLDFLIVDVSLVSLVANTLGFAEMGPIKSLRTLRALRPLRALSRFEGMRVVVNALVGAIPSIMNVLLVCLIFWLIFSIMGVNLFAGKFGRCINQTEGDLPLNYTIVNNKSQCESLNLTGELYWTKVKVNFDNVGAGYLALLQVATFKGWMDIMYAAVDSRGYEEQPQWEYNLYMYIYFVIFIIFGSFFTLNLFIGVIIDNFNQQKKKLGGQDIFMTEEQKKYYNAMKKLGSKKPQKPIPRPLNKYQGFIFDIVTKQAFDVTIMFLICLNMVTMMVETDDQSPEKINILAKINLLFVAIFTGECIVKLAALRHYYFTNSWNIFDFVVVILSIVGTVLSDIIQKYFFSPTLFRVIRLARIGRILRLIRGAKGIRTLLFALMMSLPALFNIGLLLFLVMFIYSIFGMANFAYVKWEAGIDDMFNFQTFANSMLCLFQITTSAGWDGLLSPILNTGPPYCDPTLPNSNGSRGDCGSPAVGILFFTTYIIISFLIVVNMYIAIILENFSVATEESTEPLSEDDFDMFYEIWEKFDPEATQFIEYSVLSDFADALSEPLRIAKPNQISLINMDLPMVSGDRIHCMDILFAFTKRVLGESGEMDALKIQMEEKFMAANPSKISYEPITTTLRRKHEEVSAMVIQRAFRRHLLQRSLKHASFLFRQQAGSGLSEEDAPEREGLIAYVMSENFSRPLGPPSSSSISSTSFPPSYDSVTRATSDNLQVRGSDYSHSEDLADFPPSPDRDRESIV
Procedure: Nav1.5 channels were studied with Navβ1 (SCNIB, isoform b; NM_001037) in pRAT, a CMV driven vector. N-terminal CRY2-tagged pseudojanin in pMaX(+) vector was generated by Genscript (Piscataway, NY). Purified diC8PI(4,5)P2 was purchased from Echelon Biosciences.
HEK293-T cells were purchased from American Type Culture Collection (ATCC, catalog no. CRL-3216). The cells were cultured in 60-mm dishes in Dulbecco's Modified Eagle Medium (DMEM) (Sigma-Aldrich) that was supplemented with a combination of 100 units/ml of penicillin, 100 μg/ml of streptomycin and 10% Fetal Bovine Serum (FBS). Stable cells were cultured in previously mentioned DMEM, penicillin, streptomycin, and FBS medium with addition of 2 μg/ml puromycin, 5 μg/ml blasticidin, 200 μg/ml geneticin (G418). Both cell lines were incubated at 5% CO2 at 37° C. 24 hours before transfection cells from either cell lines were seeded on glass coverslips in 35-mm dishes. Both cell lines were transfected in OptiMEM using polyethyleneimine (PEI) at a 1 μg of DNA: 4 μL PEI to 1 μg of DNA: 6 μL PEI ratio for 2-4 hours. HEK293-T cells were transfected with 1.5 μg of channel DNA and 1 μg of the beta subunit alone and alongside light-activated constructs. Stable cells were transfected with 1p g of the beta subunit alone and alongside light-activated constructs. Electrophysiology recordings were performed within 24-48 hours after transfection at room temperature.
Both the HEK293-T, and Nav1.5 stable cells were studied under whole-cell patch clamp. Sodium currents were recorded using the Tecella Pico-2 amplifier (Tecella) and WinWCP software (University of Strathclyde) at a low pass (Bessel) filter of 9 kHz and sampled at 50 kHz frequencies. The borosilicate glass (Clark Kent) patch pipettes were pulled to a resistance of 2-4 MQ using the vertical puller (Narishige) when filled with internal solution. The internal solution contained (in mM): 60 CsCl, 80 CsF, 2 MgCl2·6H2O, 10 EGTA, 5 HEPES, 5 Na2ATP, pH 7.4 with CsOH. Cells were perfused through a multichannel gravity-driven perfusion manifold (Warner) with an extracellular solution containing (in mM): 130 NaCl, 5 CsCl, 1.2 MgCl2·6H2O, 1.5 CaCl2), 8 Glucose, 10 HEPES. Cells with a series resistance less than 15 MQ were studied.
Current-voltage relationships were evoked by a 250-ms test pulse between −80 mV to 35 mV, in 5 mV increments. Steady-state inactivation was studied by holding cells at −120 mV and then comparing currents that were evoked by a 50 ms test pulse between −120 mV and −20 mV to those evoked by a 500 ms pre-pulse to 30 mV, in 10 mV increments. Normalized peak currents were then plotted against pre-pulse potential (mV). To determine voltage-dependence, the data was normalized and plotted against the driving force and fitted to a Boltzmann function, I=Imax(1+exp[V−V1/2/k]), where Imax is maximum current and k is the slope factor to generate normalized conductance-voltage (G-V) relationship. The ILATE was evoked by a single test pulse between −90 mV and −20 mV. ILATE was calculated from the last 10 ms of this 250 ms test pulse. From this recording protocol, the time constant for inactivation (T) was determined from a mono-exponential fit of normalized current amplitude using It=Imax+A [e^−t/τ], A is amplitude and t is time. All whole-cell currents were normalized to the capacitance of cell.
Experiments were set up similar to those in Gada et al (2023). Optogenetic studies were conducted simultaneously alongside patch-clamp. Here the photoactivation of cells was conducted in the epifluorescence-mode to utilize continuous excitation from a broad-spectrum LED (Excelitas) through a 448/20 nm filter (Chroma), via a 20× objective lens (Olympus). A photometer (ThorLabs) was used to measure the light output which measured at 50 mW/cm^2. […]

[2] = target: T2, IK1 (Kir2.1) (Rattus norvegicus, UniProt Q64273); details: diC8-PI(4,5)P2 in recording pipette, concentration dependent; RVCMs, 2% O2; cited from earlier work
T2 construct: endogenous in cells; host or cells: rat ventricular cardiomyocytes (RVCMs)
T2 sequence (Q64273 1-427): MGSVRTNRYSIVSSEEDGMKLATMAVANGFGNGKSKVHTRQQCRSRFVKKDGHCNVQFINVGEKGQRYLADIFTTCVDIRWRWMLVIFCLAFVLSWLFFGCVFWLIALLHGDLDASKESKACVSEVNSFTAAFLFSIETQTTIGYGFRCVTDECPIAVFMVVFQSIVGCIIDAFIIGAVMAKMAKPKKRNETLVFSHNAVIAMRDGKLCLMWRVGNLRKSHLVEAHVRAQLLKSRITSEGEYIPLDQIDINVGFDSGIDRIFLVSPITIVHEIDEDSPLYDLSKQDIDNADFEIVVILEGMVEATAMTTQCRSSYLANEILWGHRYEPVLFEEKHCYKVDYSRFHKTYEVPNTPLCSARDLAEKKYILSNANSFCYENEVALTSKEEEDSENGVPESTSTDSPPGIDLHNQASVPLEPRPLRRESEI

[3] = 200 μM diC8PI(4,5)P2 in pipette
[4] = CRY2-5POCRL + CRY2-Sac2, BL vs control
[5] = CRY2-5POCRL + CRY2-Sac2, control (before BL)
[6] = CRY2-5POCRL, control (before BL)
[7] = CRY2-5POCRL, diC8PI(4,5)P2 enriched vs BL without diC8PI(4,5)P2

## CCCCCCCC(=O)OC[C@H](COP(=O)(O)O[C@@H]1[C@H](O)[C@H](O)[C@@H](OP(=O)(O)O)[C@H](OP(=O)(O)O)[C@H]1O)OC(=O)CCCCCCC [diC8-PIP2]
[1]; [3]
  effect on CRY2-5POCRL (CRY2-5P) dephosphorylation effects: partially opposes; also recorded: partially reverses
  effect on CRY2-5POCRL/Sac2 dephosphorylation effects (activation, SSI): partially opposes
[1]; CRY2-5POCRL + CRY2-Sac2, BL vs before BL
  left shift in the I-V relationship: −1.87 mV
[1]; [4]
  shift in V½SSI: −9.1±1.62 mV
  shift in V½act: −1.87±1.52 mV
[1]; CRY2-5POCRL + CRY2-Sac2, BL
  V½SSI: −80.48±1.75 mV
  V½act: −53.17±1.49 mV
  current density: −203.83±59.93 pA/pF
[1]; [5]
  V½SSI: −71.75±1.84 mV
  V½act: −51.30±1.7 mV
[1]; CRY2-5POCRL + CRY2-Sac2, diC8PI(4,5)P2
  effect on changes in window current: does not oppose
[1]; CRY2-5POCRL + CRY2-Sac2, diC8PI(4,5)P2 enriched before BL vs BL without diC8PI(4,5)P2
  difference in V½act: −6.518 mV
[1]; CRY2-5POCRL + CRY2-Sac2, diC8PI(4,5)P2 enriched vs BL without diC8PI(4,5)P2
  difference in V½SSI: −8.73±2.61
[1]; CRY2-5POCRL + CRY2-Sac2, without BL
  current density: −80.94±28.21 pA/pF
[1]; CRY2-5POCRL, BL vs control
  shift in V½SSI: −0.9383±2.01 mV
  shift in V½act: −8.61±0.77 mV
[1]; CRY2-5POCRL, BL
  V½SSI: −72.13±1.53 mV
  V½act: −55.90±2.00 mV
  left shift in the I-V relationship: ~8.61 mV
  τinact: 1.68 ± 0.15 ms
  ILATE: 0.64±0.25%
[1]; [6]
  V½SSI: −73.07±1.54 mV
  V½act: −47.29±1.77 mV
  τinact: 1.24 ± 0.3 ms
  ILATE: 0.08±0.025%
[1]; CRY2-5POCRL, diC8PI(4,5)P2 enriched before BL vs BL without diC8PI(4,5)P2
  difference in V½act: ~6.768±2.420 mV
[1]; [7]
  difference in ILATE: 2.139±0.5794
  difference in V½SSI: −6.518 mV
  difference in τinact: 1.345 ± 0.3918 ms
[1]; diC8PI(4,5)P2 enriched vs depleted
  effect on CRY2-PJ dephosphorylation effect on voltage-dependence of inactivation (SSI): opposed; also recorded: partially opposes
[1]; diC8PI(4,5)P2 in pipette
  effect on CRY2-PJ dephosphorylation effects on Nav1.5: did not oppose; also recorded: does not oppose
[2]
  effect on hypoxic inhibition of IK1: opposed
